According to patent publication US7022484B2, “Methods for treating neuropathological states and neurogenic inflammatory states and methods for identifying compounds useful therein” (Board of Regents, The University of Texas System, priority 2000, dated 2006):
Entries after “also recorded” stand apart in the source; their conditions may differ.

Assays:
NMDA currents = conditions: patch clamp studies; cited from earlier work
rat arthritis model = assay: Knee joint circumference and joint temperature in kaolin/carrageenan knee joint inflammation model; assay type: in vivo; conditions: 4 hours after kaolin/carrageenan; spinal pre-treatment
Experimental: An acute inflammatory response restricted to the knee joint can be induced by the injection of 3% kaolin and 3% carrageenan (in sterile saline; 0.1 ml; pH 7.4) into the joint cavity while the animal is briefly anesthetized with sodium methohexital (Brevital, 60 mg/kg, i.p.). Kaolin and carrageenan were obtained from Fisher Scientific, St. Louis, Mo. The knee joint is flexed manually until the rat awakes (approximately 5–10 minutes). In this arthritis model in the awake rat, localized joint swelling, as well as limping and guarding of the limb, are well developed at 4 hours (Sluka et al., Pain, 59, 95–100 (1994)) when behavioral testing begins.
Knee joint circumference is measured in centimeters (cm) with a flexible tape measure around the center of the knee joint while the joint is held in extension as done with patients in the clinical setting as an indication of increases in joint volume. The knee joints of anesthetized rats are measured before (baseline) and four hours following injection of the knee joint with kaolin and carrageenan.
Temperature readings were documented numerically with a temperature probe after the rat is reanesthetized with sodium pentobarbital (50 mg/kg, i.p.) just prior to perfusion with aldehydes for histological preservation. Comparative temperature differences were made between the baseline temperature and the temperature four hours after induction of inflammation.

TNFα = TNFα release by ELISA from SW982 synovial cells treated with NMDA and ACPD; assay type: cell-based, human; conditions: 24 hours, NMDA (5 mM) and ACPD (5 mM), K252a (100 nM)
Experimental: The cultured cell lines used in these studies were the human neuroblastoma clonal line, SHSY5Y, and the human synovial sarcoma clonal line, SW982, both available through the American Tissue Type Culture Collection (item number CRL 2266 and HTB-93, respectively). Cells were grown in Dulbecco's Modification of Eagles Medium (DMEM) without L-glutamine, with 4.5 grams/Liter glucose, and with 10% bovine fetal serum in a tissue culture incubator at 37° C. in a gaseous mixture of O2/CO2. Cells were routinely split as necessary to maintain proper cell density. Cells were removed from plates by adding TRYPSIN/EDTA in Hank's Balanced Salt solution. After cell counts, approximately 10,000 cells were plated per well in a culture dish. For experiments, the cells were plated into 35 mm Petri dishes or 6- or 24-well plates as needed.
For detection of released Tumor Necrosis Factor alpha (TNFα) and some western blot experiments, cells were exposed to the two glutamate agonists NMDA (5 mM) and ACPD (5 mM), in the presence or absence of the tyrosine kinase inhibitors Genistein […] or K252a (100 nM). […]
The release of the inflammatory mediator and initiator of inflammatory cascades, TNFα was measured by ELISA using a commercially available kit (R&D Quantikine, Catalog Number DTA50) specific for human TNFα. […]

[1] = tested on: NMDA receptor subunit NR1; assay: Immunocytochemical localization of NMDA receptor subunit NR1 in spinal cord of arthritic rats; assay type: in vivo, rat; conditions: Genistein 1 mM spinal pre-treatment
Description: Cycloheximide (100 milligrams per kilogram (mg/kg) intraperitoneal (i.p.) was used in some studies to determine if the alterations observed for the NMDA NR1 receptor subunit could be attributed to newly synthesized NR1 protein.
Twenty-four rats in 3 separate groups were used for immunocytochemical studies. One group of rat (n=8) was a naive control. The other 2 groups (n=16) of rats received surgical placement of the microdialysis fiber placement. On the day after microdialysis fiber placement, the animals were treated spinally with either Genistein (1 mM) or vehicle (50% DMSO in aCSF) for 1.5 hours (n=8 for each group). Then the left knee joint of all sixteen rats was injected with 0.1 ml of kaolin and carrageenan.
Animals were anesthetized and transcardially perfused with a brief warm saline rinse followed by fixative solution (4% paraformaldehyde in 0.1 M phosphate buffer, pH 7.4). The tissues were soaked overnight in 30% buffered sucrose and cut at 30 microns on a sliding microtome. For light microscopy, the tissues from animals (n=8) were permeabilized with a 50% buffered ethanol treatment. Tissue sections were then stained immunocytochemically for glutamate receptor subunit NR1 and phospho-NR1. Primary antibodies to be used for staining include anti-NMDA NR1 NMDA receptor (0.5–1 milligrams per milliliter (mg/ml)) purchased from Chemlcon Inc. (Pittsburgh, Pa.). Other neurotransmitter and receptor primary antibodies against NMDA NR2C, mGluR1, and mGluR5 were used as stain specificity controls. The primary antibodies were diluted in phosphate buffered saline (PBS, pH 7.6) with 0.1% BSA for overnight incubation on the spinal cord tissues. After washing in PBS, the tissue sections were incubated in the appropriate secondary antibody, either anti-mouse or anti-rabbit IgG (1:100, 30 minutes) and in avidin-biotin complex (ABC, 1:100, Vector Laboratories, Burlingame, Calif.). Sections were reacted with diaminobenzidine (DAB) solution (1.5 mg/ml) as the chromogen and peroxide (0.5 mg/ml) to produce a dense reaction product. To further intensify the reaction product particularly for visualization of nuclear rings, some tissues were reacted with colloidal gold conjugated IgG and reacted with a silver chloride solution to produce an intense black reaction product (Takizawa et al., J. Histochemistry & Cytochemistry, 42, 1615–1623 (1994)).
Immunocytochemical controls included sections processed in the absence of the primary or secondary antibody or ABC reagents. The specificity of the transmitter antibodies was confirmed by appearance of a single band by Western blot. In addition to use of the C-terminus NR1 antibody from ChemIcon, an antibody directed to the N-terminus of the NR1 protein was used as control (1 mg/ml; BD PharMingen, San Diego, Calif.). […]

## O=c1c(-c2ccc(O)cc2)coc2cc(O)cc(O)c12 [Genistein, 5,7-Dihydroxy-3-(4-hydroxyphenyl)-4H-1-benzopyran-4-one; 4′,5,7-trihydroxy-isoflavone]
NMDA currents
  effect on NMDA currents: decreases NMDA currents
Rat arthritis model
  joint circumference: expected increases
  joint temperature: expected increases
TNFα
  NMDA/ACPD-promoted release of TNFα: completely abolished
[1]; 4 hours, cycloheximide 100 mg/kg i.p.
  staining for NR1 in spinal cord: about half that observed in arthritic rats and was not significantly increased above levels seen in normal rats; also recorded: greatly reduced expression increases for NR1 that were not significantly different from baseline
[1]
  nuclear localization of NR1: greatly reduced; also recorded: inhibited the shift in the pattern of NMDA NR1 protein staining
